Results: ChEMBL document CHEMBL5247627, “1-Methyl-3-((4-(quinolin-4-yloxy)phenyl)amino)-1H-pyrazole-4-carboxamide derivatives as new rearranged during Transfection (RET) kinase inhibitors capable of suppressing resistant mutants in solvent-front regions” (Eur J Med Chem, 2022)

How the values were obtained:
[1] = system: BaF3; assay: Antiproliferative activity against mouse BaF3 cells expressing wildtype rearranged during transfection kinase-CCDC6 incubated for 74 to 76 hrs by cell counting kit 8 method
[2] = system: BaF3; assay: Antiproliferative activity against mouse BaF3 cells expressing rearranged during transfection kinase V804M-CCDC6 incubated for 74 to 76 hrs by cell counting kit 8 method
[3] = system: BaF3; assay: Antiproliferative activity against mouse BaF3 cells expressing rearranged during transfection kinase G810C-CCDC6 incubated for 74 to 76 hrs by cell counting kit 8 method
[4] = system: BaF3; assay: Antiproliferative activity against mouse BaF3 cells expressing rearranged during transfection kinase G810R-CCDC6 incubated for 74 to 76 hrs by cell counting kit 8 method
[5] = system: BaF3; assay: Antiproliferative activity against mouse BaF3 cells incubated for 74 to 76 hrs by cell counting kit 8 method; assay type: functional, cell-based
[6] = system: BaF3; assay: Antiproliferative activity against mouse BaF3 cells expressing wildtype rearranged during transfection kinase-KIF5B incubated for 74 to 76 hrs by cell counting kit 8 method
[7] = system: BaF3; assay: Antiproliferative activity against mouse BaF3 cells expressing rearranged during transfection kinase V804M-KIF5B incubated for 74 to 76 hrs by cell counting kit 8 method
[8] = system: BaF3; assay: Antiproliferative activity against mouse BaF3 cells expressing rearranged during transfection kinase V804L-KIF5B incubated for 74 to 76 hrs by cell counting kit 8 method
[9] = system: BaF3; assay: Antiproliferative activity against mouse BaF3 cells expressing rearranged during transfection kinase V804L-G810C incubated for 74 to 76 hrs by cell counting kit 8 method
[10] = system: BaF3; assay: Antiproliferative activity against mouse BaF3 cells expressing rearranged during transfection kinase V804L-G810S incubated for 74 to 76 hrs by cell counting kit 8 method
[11] = system: BaF3; assay: Antiproliferative activity against mouse BaF3 cells expressing rearranged during transfection kinase V804L-G810R incubated for 74 to 76 hrs by cell counting kit 8 method
[12] = biological target: Proto-oncogene tyrosine-protein kinase receptor Ret (Homo sapiens, UniProt P07949); assay: Inhibition of wild type rearranged during transfection kinase (unknown origin) preincubated for 1 hr followed by addition of development agent incubated for 1 hr measured by FRET-based Z'-Lyte assay
Sequence of Proto-oncogene tyrosine-protein kinase receptor Ret (P07949 whole entry): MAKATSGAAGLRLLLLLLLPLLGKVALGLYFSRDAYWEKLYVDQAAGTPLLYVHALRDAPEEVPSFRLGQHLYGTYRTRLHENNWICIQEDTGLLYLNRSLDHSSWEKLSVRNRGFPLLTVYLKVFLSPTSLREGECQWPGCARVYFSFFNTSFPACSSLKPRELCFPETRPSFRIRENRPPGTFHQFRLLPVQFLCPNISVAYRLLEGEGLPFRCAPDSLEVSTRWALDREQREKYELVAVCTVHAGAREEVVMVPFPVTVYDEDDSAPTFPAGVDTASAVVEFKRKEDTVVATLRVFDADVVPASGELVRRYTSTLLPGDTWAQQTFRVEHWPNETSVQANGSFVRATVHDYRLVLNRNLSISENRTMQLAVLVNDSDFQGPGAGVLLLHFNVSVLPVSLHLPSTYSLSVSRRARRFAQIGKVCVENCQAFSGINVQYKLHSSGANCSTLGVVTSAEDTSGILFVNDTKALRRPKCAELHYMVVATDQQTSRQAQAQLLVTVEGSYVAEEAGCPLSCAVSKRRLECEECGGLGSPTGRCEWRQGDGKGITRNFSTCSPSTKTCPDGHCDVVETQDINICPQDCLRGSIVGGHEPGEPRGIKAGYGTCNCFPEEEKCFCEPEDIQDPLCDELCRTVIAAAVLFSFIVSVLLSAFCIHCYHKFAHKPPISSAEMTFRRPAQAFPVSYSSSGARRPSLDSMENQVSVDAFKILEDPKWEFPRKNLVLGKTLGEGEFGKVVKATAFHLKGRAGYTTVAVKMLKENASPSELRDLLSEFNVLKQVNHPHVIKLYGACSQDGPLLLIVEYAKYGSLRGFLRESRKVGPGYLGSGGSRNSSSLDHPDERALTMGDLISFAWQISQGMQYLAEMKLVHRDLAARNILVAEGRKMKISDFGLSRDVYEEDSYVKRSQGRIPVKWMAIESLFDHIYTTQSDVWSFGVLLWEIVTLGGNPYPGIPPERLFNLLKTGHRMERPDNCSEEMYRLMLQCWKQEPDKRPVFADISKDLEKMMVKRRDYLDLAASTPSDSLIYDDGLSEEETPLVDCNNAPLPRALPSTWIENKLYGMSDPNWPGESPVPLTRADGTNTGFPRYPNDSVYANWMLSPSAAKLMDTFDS

| SMILES | IC50 [1] [nM] | IC50 [2] [nM] | IC50 [3] [nM] | IC50 [4] [nM] | IC50 [5] [nM] | IC50 [6] [nM] | IC50 [7] [nM] | IC50 [8] [nM] | IC50 [9] [nM] | IC50 [10] [nM] | IC50 [11] [nM] | IC50 [12] [nM] |
| --- | --- | --- | --- | --- | --- | --- | --- | --- | --- | --- | --- | --- |
| Cn1cc(C(=O)NC23CC4CC(CC(C4)C2)C3)c(Nc2ccc(Oc3ccnc4cc(OCCCN5CCOCC5)c(C(N)=O)cc34)c(F)c2)n1 | 5.1 | 7 | 363 | 329 | 1360 |  |  |  |  |  |  |  |
| COc1cc2nccc(Oc3ccc(Nc4nn(C)cc4C(=O)NC45CC6CC(CC(C6)C4)C5)c(C)c3)c2cc1C(N)=O | 11.8 | 62.2 | 66.1 | 464 | > 10000 |  |  |  |  |  |  |  |
| COc1cc2nccc(Oc3ccc(Nc4nn(C)cc4C(=O)Nc4ccccc4F)cc3)c2cc1C(N)=O | > 10000 | 1860 | > 10000 | 1200 | 1710 |  |  |  |  |  |  | > 10000 |
| COc1cc2nccc(Oc3ccc(Nc4nn(C)cc4C(=O)NC4CCCCC4)cc3)c2cc1C(N)=O | 24 | 235 | 442 | 582 | 4800 |  |  |  |  |  |  |  |
| COc1cc2nccc(Oc3ccc(Nc4nn(C)cc4C(=O)Nc4ccccc4)cc3)c2cc1C(N)=O | 2260 | 1720 | > 10000 | > 10000 | > 10000 |  |  |  |  |  |  |  |
| COc1cc2nccc(Oc3ccc(Nc4nn(C)cc4C(=O)NCC(C)C)cc3)c2cc1C(N)=O | 206 | 2080 | 2280 | 2050 | > 10000 |  |  |  |  |  |  |  |
| COc1cc2nccc(Oc3ccc(Nc4nn(C)cc4C(=O)N4CCCCC4)cc3)c2cc1C(N)=O | 3060 | 3780 | 5760 | 3520 | 5650 |  |  |  |  |  |  | > 10000 |
| COc1cc2nccc(Oc3ccc(Nc4nn(C)cc4C(=O)NCC4CCCCC4)cc3)c2cc1C(N)=O | 281 | 888 | 1260 | 3620 | > 10000 |  |  |  |  |  |  |  |
| COc1cc2nccc(Oc3ccc(Nc4nn(C)cc4C(=O)NC45CCC(CC4)CC5)cc3)c2cc1C(N)=O | 13.9 | 161 | 329 | 263 | > 10000 |  |  |  |  |  |  |  |
| CO[C@]1(C(=O)N[C@@H](C)c2ccc(-n3cc(F)cn3)nc2)CC[C@H](c2nc(C)cc(Nc3cc(C)[nH]n3)n2)CC1 [PRALSETINIB] | 4.4 | 3.5 | > 261 | 575 | 1170 | 5.7 | 9.2 | 4.1 | 215 | 21.7 | 241 |  |
| COc1cc2nccc(Oc3ccc(Nc4nn(C)cc4C(=O)NC45CC6CC(CC(C6)C4)C5)cc3F)c2cc1C(N)=O | 179 | 1360 | 1000 | 1640 | > 10000 |  |  |  |  |  |  |  |

Next, values leading:

| IC50 [1] [nM] | IC50 [2] [nM] | IC50 [3] [nM] | IC50 [4] [nM] | IC50 [5] [nM] | IC50 [6] [nM] | IC50 [7] [nM] | IC50 [8] [nM] | IC50 [9] [nM] | IC50 [10] [nM] | IC50 [11] [nM] | IC50 [12] [nM] | SMILES |
| --- | --- | --- | --- | --- | --- | --- | --- | --- | --- | --- | --- | --- |
| 13.8 | 61.5 | 122 | 192 | > 10000 |  |  |  |  |  |  |  | CNC(=O)c1cc2c(Oc3ccc(Nc4nn(C)cc4C(=O)NC45CC6CC(CC(C6)C4)C5)cc3F)ccnc2cc1OC |
| 7.4 | 17.4 | 472 | 1100 | > 10000 | 10.6 | 72 | 37.8 | 1240 | 253 | 4340 |  | COc1ccc(CN2C3CC2CN(c2ccc(-c4cc(OCC(C)(C)O)cn5ncc(C#N)c45)cn2)C3)cn1 [SELPERCATINIB] |
| 18.8 | 70.3 | 148 | 230 | 9770 |  |  |  |  |  |  |  | COc1cc2nccc(Oc3ccc(Nc4nn(C)cc4C(=O)NC45CC6CC(CC(C6)C4)C5)c(C#N)c3)c2cc1C(N)=O |
| 1160 | 6910 | 9510 | 9680 | > 10000 |  |  |  |  |  |  |  | COc1cc2nccc(Oc3ccc(Nc4nn(C)cc4C(=O)NCC4CCCO4)cc3)c2cc1C(N)=O (stereo unspecified) |
| 1560 | 3270 | 8520 | 3440 | 4480 |  |  |  |  |  |  | > 10000 | COc1cc2nccc(Oc3ccc(Nc4nn(C)cc4C(=O)Nc4cccc(F)c4)cc3)c2cc1C(N)=O |
| 2980 | 903 | 3770 | 1700 | 4330 |  |  |  |  |  |  | > 10000 | COc1cc2nccc(Oc3ccc(Nc4nn(C)cc4C(=O)N4CCCC5CCCCC54)cc3)c2cc1C(N)=O (stereo unspecified) |
| 12.5 | 171 | 95.3 | 523 | 3210 |  |  |  |  |  |  |  | COc1cc2nccc(Oc3ccc(Nc4nn(C)cc4C(=O)NC4CCCCCCC4)cc3)c2cc1C(N)=O |
| 142 | 1620 | 659 | 1290 | > 10000 |  |  |  |  |  |  |  | COc1cc2nccc(Oc3ccc(Nc4nn(C)cc4C(=O)NC45CC6CC(CC(C6)C4)C5)cc3F)c2cc1C#N |
| 21.6 | 141 | 349 | 591 |  |  |  |  |  |  |  |  | COc1cc(Oc2ccnc3cc(OC)c(C(N)=O)cc23)ccc1Nc1nn(C)cc1C(=O)NC12CC3CC(CC(C3)C1)C2 |
| 2980 | 3020 | 5190 | 2900 | 3060 |  |  |  |  |  |  | > 10000 | COc1cc2nccc(Oc3ccc(Nc4nn(C)cc4C(=O)Nc4ccc(F)cc4)cc3)c2cc1C(N)=O |
| 153 | 1030 | 3610 | 7280 | > 10000 |  |  |  |  |  |  |  | COc1cc2nccc(Oc3ccc(Nc4nn(C)cc4C(=O)NC4CCCC4)cc3)c2cc1C(N)=O |
| 2180 | 1120 | 8540 | 9080 | > 10000 |  |  |  |  |  |  |  | COc1cc2nccc(Oc3ccc(Nc4nn(C)cc4C(=O)NCc4ccccc4)cc3)c2cc1C(N)=O |
| 7.8 | 53.4 | 29.4 | 137 | > 10000 |  |  |  |  |  |  |  | COc1cc2nccc(Oc3ccc(Nc4nn(C)cc4C(=O)NC45CC6CC(CC(C6)C4)C5)c(Cl)c3)c2cc1C(N)=O |
| 410 | 732 | > 10000 | 4940 | > 10000 |  |  |  |  |  |  |  | COc1cc2nccc(Oc3ccc(Nc4nn(C)cc4C(=O)NOCc4ccccc4)cc3)c2cc1C(N)=O |
| 8.7 | 60.8 | 99.9 | 285 | > 10000 |  |  |  |  |  |  |  | COc1cc2nccc(Oc3ccc(Nc4nn(C)cc4C(=O)NC45CC6CC(CC(C6)C4)C5)cc3)c2cc1C(N)=O |
| 11.2 | 29.7 | 233 | 534 | > 10000 |  |  |  |  |  |  |  | Cn1cc(C(=O)NC23CC4CC(CC(C4)C2)C3)c(Nc2ccc(Oc3ccnc4cc(OCCN5CCOCC5)c(C(N)=O)cc34)c(F)c2)n1 |
